Laboratory results published in PubChem BioAssay (NCI).
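Each compound was tested at five concentrations against cells in 96-well plates for 48 hours. GI50: concentration for 50% inhibition of growth. Definition used: TGI = concentration required for complete inhibition of growth.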

Key:
Test in all cases: growth of human tumour cells (NCI), 48 h
SR leukemia = test system: SR leukemia
SK-MEL-5 melanoma = test system: SK-MEL-5 melanoma
SN12C renal = test system: SN12C renal
MDA-MB-231 breast = test system: MDA-MB-231 breast
MALME-3M melanoma = test system: MALME-3M melanoma
MCF7 breast = test system: MCF7 breast
CAKI-1 renal = test system: CAKI-1 renal
MDA-MB-468 breast = test system: MDA-MB-468 breast
CCRF-CEM leukemia = test system: CCRF-CEM leukemia
OVCAR-4 ovarian = test system: OVCAR-4 ovarian
OVCAR-5 ovarian = test system: OVCAR-5 ovarian
SK-MEL-2 melanoma = test system: SK-MEL-2 melanoma
PC-3 prostate = test system: PC-3 prostate
SF-539 CNS = test system: SF-539 CNS
A498 renal = test system: A498 renal
T-47D breast = test system: T-47D breast
A549 NSCLC = test system: A549 NSCLC
SNB-19 CNS = test system: SNB-19 CNS
NCI-H23 lung = test system: NCI-H23 lung
IGROV1 ovarian = test system: IGROV1 ovarian
OVCAR-3 ovarian = test system: OVCAR-3 ovarian
MOLT-4 leukemia = test system: MOLT-4 leukemia
DU-145 prostate = test system: DU-145 prostate
UO-31 renal = test system: UO-31 renal
K-562 leukemia = test system: K-562 leukemia
786-0 renal = test system: 786-0 renal
COLO 205 colon = test system: COLO 205 colon
TK-10 renal = test system: TK-10 renal
MDA-MB-435 = test system: MDA-MB-435
SW-620 colon = test system: SW-620 colon
HL-60(TB) leukemia = test system: HL-60(TB) leukemia
SNB-75 CNS = test system: SNB-75 CNS
M14 melanoma = test system: M14 melanoma
HOP-92 NSCLC = test system: HOP-92 NSCLC
HCT-116 colon = test system: HCT-116 colon
UACC-62 melanoma = test system: UACC-62 melanoma
HCT-15 colon = test system: HCT-15 colon
BT-549 breast = test system: BT-549 breast
NCI/ADR-RES ovarian = test system: NCI/ADR-RES ovarian
NCI-H522 lung = test system: NCI-H522 lung
LOX IMVI melanoma = test system: LOX IMVI melanoma
KM12 colon = test system: KM12 colon
NCI-H460 lung = test system: NCI-H460 lung
SK-OV-3 ovarian = test system: SK-OV-3 ovarian
HCC-2998 colon = test system: HCC-2998 colon
SK-MEL-28 melanoma = test system: SK-MEL-28 melanoma
SF-295 CNS = test system: SF-295 CNS
EKVX NSCLC = test system: EKVX NSCLC
ACHN renal = test system: ACHN renal
UACC-257 melanoma = test system: UACC-257 melanoma
NCI-H226 lung = test system: NCI-H226 lung
HOP-62 NSCLC = test system: HOP-62 NSCLC
HT29 colon = test system: HT29 colon
RXF 393 renal = test system: RXF 393 renal
HS 578T breast = test system: HS 578T breast
RPMI-8226 leukemia = test system: RPMI-8226 leukemia
U251 CNS = test system: U251 CNS
OVCAR-8 ovarian = test system: OVCAR-8 ovarian
SF-268 CNS = test system: SF-268 CNS

## [2H]C([2H])([2H])Oc1ccc2ncc(C#Cc3cncc(C(=O)Nc4ccc(CN5CCN(C)CC5)c(C(F)(F)F)c4)c3)n2n1
SR leukemia
  GI50: 0.0606 µM
  TGI: 94.2 µM
SK-MEL-5 melanoma
  GI50: 2.27 µM
  TGI: 6.89 µM
SN12C renal
  GI50: 0.498 µM
  TGI: 1.81 µM
MDA-MB-231 breast
  GI50: 0.278 µM
  TGI: 1.53 µM
MALME-3M melanoma
  GI50: 0.291 µM
  TGI: 1.49 µM
MCF7 breast
  GI50: 0.0503 µM
  TGI: 1.46 µM
CAKI-1 renal
  GI50: 0.619 µM
  TGI: 4.54 µM
MDA-MB-468 breast
  GI50: 1.2 µM
  TGI: 2.95 µM
CCRF-CEM leukemia
  GI50: 0.043 µM
  TGI: 3.74 µM
OVCAR-4 ovarian
  GI50: 1 µM
  TGI: 2.63 µM
OVCAR-5 ovarian
  GI50: 0.507 µM
  TGI: 1.8 µM
SK-MEL-2 melanoma
  GI50: 1.09 µM
  TGI: 6.34 µM
PC-3 prostate
  GI50: 0.94 µM
  TGI: 2.35 µM
SF-539 CNS
  GI50: 0.112 µM
  TGI: 1.06 µM
A498 renal
  GI50: 8.64 µM
  TGI: 27.8 µM
T-47D breast
  GI50: 12.1 µM
  TGI: 57.3 µM
A549 NSCLC
  GI50: 0.742 µM
  TGI: 2.37 µM
SNB-19 CNS
  GI50: 1.39 µM
  TGI: 2.64 µM
NCI-H23 lung
  GI50: 0.35 µM
  TGI: 1.63 µM
IGROV1 ovarian
  GI50: 0.581 µM
  TGI: 2.04 µM
OVCAR-3 ovarian
  GI50: 1.6 µM
  TGI: 5.83 µM
MOLT-4 leukemia
  GI50: 0.0668 µM
  TGI: 2.02 µM
DU-145 prostate
  GI50: 0.93 µM
  TGI: 2.15 µM
UO-31 renal
  GI50: 1.03 µM
  TGI: 2.22 µM
K-562 leukemia
  GI50: 0.00942 µM
  TGI: 94.2 µM
786-0 renal
  GI50: 1.37 µM
  TGI: 2.66 µM
COLO 205 colon
  GI50: 0.238 µM
  TGI: 0.719 µM
TK-10 renal
  GI50: 3.17 µM
  TGI: 7.63 µM
MDA-MB-435
  GI50: 0.321 µM
  TGI: 1.77 µM
SW-620 colon
  GI50: 0.167 µM
  TGI: 1.18 µM
HL-60(TB) leukemia
  GI50: 0.101 µM
  TGI: 1.99 µM
SNB-75 CNS
  GI50: 1.92 µM
  TGI: 6.09 µM
M14 melanoma
  GI50: 0.377 µM
  TGI: 1.62 µM
HOP-92 NSCLC
  GI50: 0.173 µM
  TGI: 0.833 µM
HCT-116 colon
  GI50: 0.0677 µM
  TGI: 1.24 µM
UACC-62 melanoma
  GI50: 5.27 µM
  TGI: 21 µM
HCT-15 colon
  GI50: 0.387 µM
  TGI: 1.64 µM
BT-549 breast
  GI50: 0.833 µM
  TGI: 10.4 µM
NCI/ADR-RES ovarian
  GI50: 1.18 µM
  TGI: 2.65 µM
NCI-H522 lung
  GI50: 1.14 µM
  TGI: 7.23 µM
LOX IMVI melanoma
  GI50: 0.446 µM
  TGI: 1.8 µM
KM12 colon
  GI50: 0.00942 µM
  TGI: 1.35 µM
NCI-H460 lung
  GI50: 0.239 µM
  TGI: 1.81 µM
SK-OV-3 ovarian
  GI50: 4.03 µM
  TGI: 18.6 µM
HCC-2998 colon
  GI50: 1.03 µM
  TGI: 2.7 µM
SK-MEL-28 melanoma
  GI50: 1.16 µM
  TGI: 2.41 µM
SF-295 CNS
  GI50: 0.839 µM
  TGI: 7.23 µM
EKVX NSCLC
  GI50: 0.606 µM
  TGI: 2.22 µM
ACHN renal
  GI50: 0.574 µM
  TGI: 11.2 µM
UACC-257 melanoma
  GI50: 0.995 µM
  TGI: 3.73 µM
NCI-H226 lung
  GI50: 0.124 µM
  TGI: 2.59 µM
HOP-62 NSCLC
  GI50: 0.656 µM
  TGI: 4.54 µM
HT29 colon
  GI50: 0.303 µM
  TGI: 1.41 µM
RXF 393 renal
  GI50: 1.15 µM
  TGI: 2.5 µM
HS 578T breast
  GI50: 0.444 µM
  TGI: 6.36 µM

## O=C(COc1ccc(NC(=O)Nc2ccc(Cl)c(Cl)c2)cc1)N=Nc1c(O)[nH]c2ccccc12
SR leukemia
  GI50: 4.65 µM
  TGI: 32.9 µM
SK-MEL-5 melanoma
  GI50: 4.73 µM
  TGI: 16.7 µM
SN12C renal
  GI50: 1.77 µM
  TGI: 3.77 µM
MDA-MB-231 breast
  GI50: 1.96 µM
  TGI: 4.7 µM
MALME-3M melanoma
  GI50: 1.83 µM
  TGI: 3.76 µM
MCF7 breast
  GI50: 2.49 µM
  TGI: 7.48 µM
CAKI-1 renal
  GI50: 4.69 µM
  TGI: 17.1 µM
MDA-MB-468 breast
  GI50: 1.8 µM
  TGI: 3.8 µM
CCRF-CEM leukemia
  GI50: 3.97 µM
  TGI: 20.8 µM
OVCAR-4 ovarian
  GI50: 2.47 µM
  TGI: 8.09 µM
OVCAR-5 ovarian
  GI50: 3.39 µM
  TGI: 13.7 µM
RPMI-8226 leukemia
  GI50: 5.32 µM
  TGI: 29.8 µM
SK-MEL-2 melanoma
  GI50: 12.1 µM
  TGI: 25.9 µM
PC-3 prostate
  GI50: 2.01 µM
  TGI: 6.24 µM
SF-539 CNS
  GI50: 1.97 µM
  TGI: 4.38 µM
A498 renal
  GI50: 10.5 µM
  TGI: 23.2 µM
T-47D breast
  GI50: 10.6 µM
  TGI: 25.2 µM
A549 NSCLC
  GI50: 2.97 µM
  TGI: 8.33 µM
SNB-19 CNS
  GI50: 2.89 µM
  TGI: 10.5 µM
NCI-H23 lung
  GI50: 2.91 µM
  TGI: 8.31 µM
IGROV1 ovarian
  GI50: 4.59 µM
  TGI: 17.4 µM
OVCAR-3 ovarian
  GI50: 2.02 µM
  TGI: 4.67 µM
MOLT-4 leukemia
  GI50: 3.67 µM
  TGI: 19.8 µM
DU-145 prostate
  GI50: 3.29 µM
  TGI: 18.7 µM
UO-31 renal
  GI50: 39 µM
  TGI: > 100 µM
K-562 leukemia
  GI50: 3.46 µM
  TGI: 17.9 µM
786-0 renal
  GI50: 2.69 µM
  TGI: 6.27 µM
U251 CNS
  GI50: 1.77 µM
  TGI: 3.32 µM
COLO 205 colon
  GI50: 2.19 µM
  TGI: 5.18 µM
TK-10 renal
  GI50: 10.6 µM
  TGI: 28.6 µM
MDA-MB-435
  GI50: 2.05 µM
  TGI: 4.8 µM
SW-620 colon
  GI50: 1.72 µM
  TGI: 3.79 µM
HL-60(TB) leukemia
  GI50: 20.8 µM
  TGI: 71.6 µM
SNB-75 CNS
  GI50: 1.65 µM
  TGI: 5.09 µM
M14 melanoma
  GI50: 2.63 µM
  TGI: 8.58 µM
HOP-92 NSCLC
  GI50: 2.58 µM
  TGI: 9.45 µM
HCT-116 colon
  GI50: 3.22 µM
  TGI: 10.3 µM
UACC-62 melanoma
  GI50: 3.55 µM
  TGI: 13.8 µM
HCT-15 colon
  GI50: 46.8 µM
  TGI: > 100 µM
BT-549 breast
  GI50: 13.7 µM
  TGI: 29.7 µM
NCI/ADR-RES ovarian
  GI50: > 100 µM
  TGI: > 100 µM
NCI-H522 lung
  GI50: 2.49 µM
  TGI: 8.06 µM
OVCAR-8 ovarian
  GI50: 2.1 µM
  TGI: 4.84 µM
LOX IMVI melanoma
  GI50: 2.79 µM
  TGI: 9.02 µM
SF-268 CNS
  GI50: 2.44 µM
  TGI: 6.14 µM
KM12 colon
  GI50: 2.87 µM
  TGI: 11.2 µM
NCI-H460 lung
  GI50: 1.84 µM
  TGI: 3.99 µM
SK-OV-3 ovarian
  GI50: 3.28 µM
  TGI: 11.8 µM
HCC-2998 colon
  GI50: 5.31 µM
  TGI: 18.1 µM
SK-MEL-28 melanoma
  GI50: 2.12 µM
  TGI: 5.07 µM
SF-295 CNS
  GI50: 2.23 µM
  TGI: 5.45 µM
EKVX NSCLC
  GI50: 6.11 µM
  TGI: 28 µM
ACHN renal
  GI50: 7.78 µM
  TGI: 36.2 µM
UACC-257 melanoma
  GI50: 2.96 µM
  TGI: 10 µM
NCI-H226 lung
  GI50: 2.76 µM
  TGI: 10.8 µM
HOP-62 NSCLC
  GI50: 2.34 µM
  TGI: 5.82 µM
HT29 colon
  GI50: 1.97 µM
  TGI: 4 µM
RXF 393 renal
  GI50: 2 µM
  TGI: 7.65 µM
HS 578T breast
  GI50: 3.06 µM
  TGI: 12 µM
